Values quoted from earlier work, collected in patent US20230180818A1, “AEROSOLISED FORMULATION” (NICOVENTURES TRADING LIMITED, priority 2018, published 2023).

Conditions: compared to base cyclodextrins such as β-cyclodextrin

With 2-hydroxy-propyl-β-cyclodextrin as the substance, how does the solubility in water read?
The solubility in water was “increased solubility in water”.
